Several values for one entry are separate records, joined by “and”; a condition that tells them apart may be missing. Identical values can stand only once. Like-named read-outs stand apart in the source and are kept apart here.
Columns and labels:
hVISA NRS2 = assay: Disk diffusion assay (zone of inhibition); type: cell-based, Staphylococcus aureus; conditions: Staphylococcus aureus; for zone of inhibition at 12.5 µg/disc: 12.5 μg in 4% P80/Span 80 (1:1); for zone of inhibition at 200 µg/disc: 200 μg in 4% P80/Span 80 (1:1)
Source text: (§1) The study was designed to identify conditions that improve oritavancin diffusion in agar and consequently yield a zone diameter ≧15 mm for the CLSI quality control strain MSSA ATCC 25923. Excipients that increased the disk diffusion of oritavancin in agar relative to disks containing only oritavancin were identified and selected for further study. […] A prediffusion step at room temperature was introduced to maximize oritavancin diffusion prior to initiation of bacterial growth. In this step, the antimicrobial disks were placed on agar plates seeded with a bacterial isolate and incubated at room temperature for 3 hours. Plates were then incubated overnight at 37° C. Zone diameters around the disks in which bacterial growth was inhibited were measured with a ruler and reported in millimeters.
(§2) Ethanol-sterilized Whatman paper disks (6 mm diameter) were allowed to dry then impregnated with 20 microliters of oritavancin solution containing total amounts ranging from 90 to 360 micrograms. Disks were allowed to dry at room temperature for various times prior to use.
(§3) Bacterial suspensions were prepared and adjusted to an optical density of 0.1 at 600 nm. Standard cation-adjusted Mueller Hinton agar plates (90 mm diameter) were seeded with bacterial suspensions by initially swabbing the center of plate then moving outward towards the edge. The plate was swabbed a second time, perpendicular to the orientation of the first swab. To assess the impact of prediffusion on diameter of inhibition zones, two disks were immediately placed on one half of the plate and the plate was incubated for 3 hours at room temperature. After 3 hours, two additional disks were placed on the other half of the plate then the plate was incubated overnight at 37° C. Zone diameters were measured with a ruler and reported in millimeters.
(§4) Oritavancin powder was dissolved in freshly-prepared solutions of the indicated excipients at concentrations of 0.625, 1.25, 2.5, 5, and 10 mg/ml (adjusted for potency based on lot 875561L00 purity of 83.1%) by vortexing for a minimum of 5 minutes. Oritavancin solutions in the various excipients, while not visually clear, were free from any apparent particulates as assessed visually. Sterile Oxoid blank disks were impregnated with 20 μl of these oritavancin solutions, resulting in oritavancin disk loads ranging from 12.5 to 200 μg. Unless indicated otherwise, disks were allowed to dry overnight at room temperature prior to use.
(§5) Bacterial suspensions from isolated colonies on overnight cation-adjusted Mueller Hinton agar plates were prepared in sterile saline and adjusted to an optical density of 0.1 at 600 nm Standard cation-adjusted Mueller Hinton agar plates (90 mm diameter) were seeded with bacterial suspensions by initially swabbing the center of plate then moving outward. Swabbing was continued at a right angle and then at an oblique angle to the first and second swabs. Disks were placed upon the seeded plates with sterile forceps. Plates were then incubated overnight at 37° C. and inhibition zone diameters were measured with a ruler and reported in millimeters.

MRSA U206056 = assay: Disk diffusion assay (zone of inhibition); type: cell-based, Staphylococcus aureus; conditions: for zone of inhibition at 360 µg/disc: read-out: Zone diameter (mm ± SD)
Source text: as §1, §2, §3, §4, §5

[1] = NRS2, NRS2, calcium alginate swab, dried overnight, read-out: Inhibition zone diameter
[2] = NRS2, NRS2, cotton swab, dried overnight, estimate of diameter

## CN[C@H](CC(C)C)C(=O)N[C@H]1C(=O)N[C@@H](CC(N)=O)C(=O)N[C@H]2C(=O)N[C@H]3C(=O)N[C@H](C(=O)N[C@H](C(=O)O)c4cc(O)cc(O)c4-c4cc3ccc4O)[C@H](O[C@H]3C[C@](C)(N)[C@@H](O)[C@H](C)O3)c3ccc(c(Cl)c3)Oc3cc2cc(c3O[C@@H]2O[C@H](CO)[C@@H](O)[C@H](O)[C@H]2O[C@H]2C[C@](C)(NCc3ccc(-c4ccc(Cl)cc4)cc3)[C@@H](O)[C@H](C)O2)Oc2ccc(cc2Cl)[C@H]1O [oritavancin, N-(4-(4-chlorophenyl)benzyl)A82846B]
hVISA NRS2; NRS2, 336 h, NRS2, 180 μg oritavancin, 10% P80, disks stored 14 days, prediffusion, read-out: Average zone diameter
  zone of inhibition at 180 µg/disc: 16 mm
hVISA NRS2; NRS2, 336 h, NRS2, 360 μg in 5% P80, Experiment 1, disks stored 14 days, no prediffusion, read-out: Zone diameter (mm ± SD)
  zone of inhibition at 360 µg/disc: 15.5 mm
hVISA NRS2; NRS2, 336 h, NRS2, 360 μg oritavancin, 5% P80, disks stored 14 days, prediffusion, read-out: Average zone diameter
  zone of inhibition at 360 µg/disc: 18 mm
hVISA NRS2; NRS2, 336 h, NRS2, 360 μg oritavancin, 10% P80, disks stored 14 days, prediffusion, read-out: Average zone diameter
  zone of inhibition at 360 µg/disc: 16.5 mm
hVISA NRS2; [1]
  zone of inhibition at 12.5 µg/disc: 12.5 mm
  zone of inhibition at 200 µg/disc: 10 mm
hVISA NRS2; [2]
  zone of inhibition at 12.5 µg/disc: 13 mm
  zone of inhibition at 200 µg/disc: 13 mm
hVISA NRS2; NRS2, NRS2, 25 μg (20 μl of 1.25 mg/ml) in 4% P80/Span 80 (1:1), calcium alginate swab, dried overnight, read-out: Inhibition zone diameter
  zone of inhibition at 1250 µg/mL: 16 mm
hVISA NRS2; NRS2, NRS2, 25 μg in 4% P80/Span 80 (1:1), cotton swab, dried overnight, estimate of diameter
  zone of inhibition at 25 µg/disc: 17 mm
hVISA NRS2; NRS2, NRS2, 50 μg in 4% P80/Span 80 (1:1), calcium alginate swab, dried overnight, read-out: Inhibition zone diameter
  zone of inhibition at 50 µg/disc: 15 mm
hVISA NRS2; NRS2, NRS2, 50 μg in 4% P80/Span 80 (1:1), cotton swab, dried overnight, estimate of diameter
  zone of inhibition at 50 µg/disc: 17 mm
hVISA NRS2; NRS2, NRS2, 50 μg, 4% P80/Span 80 ratio 50:50, dried overnight, estimate of diameter
  zone of inhibition at 50 µg/disc: 16 mm
hVISA NRS2; NRS2, NRS2, 50 μg, 4% P80/Span 80 ratio 60:40, dried overnight, estimate of diameter
  zone of inhibition at 50 µg/disc: 15 mm
hVISA NRS2; NRS2, NRS2, 50 μg, 4% P80/Span 80 ratio 70:30, dried overnight, estimate of diameter
  zone of inhibition at 50 µg/disc: 14 mm
hVISA NRS2; NRS2, NRS2, 50 μg, 4% P80/Span 80 ratio 80:20, dried overnight, estimate of diameter
  zone of inhibition at 50 µg/disc: 14 mm
hVISA NRS2; NRS2, NRS2, 50 μg, 4% P80/Span 80 ratio 90:10, dried overnight, estimate of diameter
  zone of inhibition at 50 µg/disc: 12 mm
hVISA NRS2; NRS2, NRS2, 100 μg in 4% P80/Span 80 (1:1), calcium alginate swab, dried overnight, read-out: Inhibition zone diameter
  zone of inhibition at 100 µg/disc: 11 mm
hVISA NRS2; NRS2, NRS2, 360 μg in 5% P80, Average of experiments, no prediffusion, read-out: Zone diameter (mm ± SD)
  zone of inhibition at 360 µg/disc: 14.9 ± 0.8 mm
hVISA NRS2; NRS2, NRS2, 360 μg in 5% P80, Average of experiments, prediffusion, read-out: Zone diameter (mm ± SD)
  zone of inhibition at 360 µg/disc: 17.3 ± 0.3 mm
hVISA NRS2; NRS2, NRS2, 360 μg in 5% P80, Experiment 1, disks stored 14 days, 3 h prediffusion at room temperature, read-out: Zone diameter (mm ± SD)
  zone of inhibition at 360 µg/disc: 17.5 mm
hVISA NRS2; NRS2, NRS2, 360 μg in 5% P80, Experiment 2, disks stored 8 days, 3 h prediffusion at room temperature, read-out: Zone diameter (mm ± SD)
  zone of inhibition at 360 µg/disc: 17 mm
hVISA NRS2; NRS2, NRS2, 360 μg oritavancin, excipient 5% P80, disks stored 5 days at room temperature, 3 h prediffusion, average of 2 disks, read-out: Average zone diameter
  zone of inhibition at 360 µg/disc: 17.8 mm
hVISA NRS2; NRS2, NRS2, 20 μl of 1.25 mg/ml oritavancin in 1% poly(ethylene glycol) sorbitol hexaoleate, read-out: Inhibition zone diameter
  zone of inhibition at 1250 µg/mL: 9 mm
hVISA NRS2; NRS2, NRS2, 20 μl of 1.25 mg/ml oritavancin in 5% Brij 30, read-out: Inhibition zone diameter
  zone of inhibition at 1250 µg/mL: 8 mm
hVISA NRS2; NRS2, NRS2, 20 μl of 1.25 mg/ml oritavancin in 5% Merpol SE, read-out: Inhibition zone diameter
  zone of inhibition at 1250 µg/mL: 11 mm
MRSA U206056; 25 μg (1.25 mg/ml) in 4% P80/Span 80 (1:1), dried overnight
  Inhibition zone diameter: 17 mm and 18, 18 mm
MRSA U206056; Staphylococcus aureus, MRSA, 25 μg (1.25 mg/ml) in 4% P80/Span 80 (1:1), dried overnight, read-out: Inhibition zone diameter
  zone of inhibition at 25 µg/disc: 18 mm
MRSA U206056; Staphylococcus aureus, MRSA, 360 μg in 5% P80, Average of experiments, no prediffusion
  zone of inhibition at 360 µg/disc: 15 ± 0.6 mm
MRSA U206056; Staphylococcus aureus, MRSA, 360 μg in 5% P80, Average of experiments, prediffusion
  zone of inhibition at 360 µg/disc: 17.4 ± 0.5 mm
MRSA U206056; Staphylococcus aureus, MRSA, 360 μg in 5% P80, Experiment 1, disks stored 14 days, 3 h prediffusion at room temperature
  zone of inhibition at 360 µg/disc: 17.8 ± 0.4 mm
MRSA U206056; Staphylococcus aureus, MRSA, 360 μg in 5% P80, Experiment 2, disks stored 8 days, 3 h prediffusion at room temperature
  zone of inhibition at 360 µg/disc: 17 mm
MRSA U206056; Staphylococcus aureus, MRSA, 192 h, 360 μg in 5% P80, Experiment 2, disks stored 8 days, no prediffusion
  zone of inhibition at 360 µg/disc: 14.5 mm
MRSA U206056; Staphylococcus aureus, MRSA, 336 h, 360 μg in 5% P80, Experiment 1, disks stored 14 days, no prediffusion
  zone of inhibition at 360 µg/disc: 15.5 mm
